Experimental data from paper PMC4010551, “Targeting Staphylococcus aureus Quorum Sensing with Nonpeptidic Small Molecule Inhibitors” (Journal of Medicinal Chemistry, 2014).
≈ marks a conversion by molar mass, not a printed value. Entries after “also recorded” stand apart in the source; their conditions may differ. Read-outs that look alike come from different tables or passages of the source.

Legend:
agr = experiment: microbe, parasite or virus in culture; assay type: cell-based, Staphylococcus aureus; conditions: for difference between MIC and agr IC50: MIC relative to agr IC50; for IC50: Staphylococcus aureus, read-out: agr IC50; for effect of double bond in acyl chain on activity: S18 cf. 15, S19 cf. 16
Staphylococcus aureus = experiment: Antibacterial activity (MIC in MH broth); assay type: cell-based; conditions: for MIC: Staphylococcus aureus; for inhibition of bacterial growth (result in words): at 100 μM
S. aureus membranes = biological target: S. aureus membranes; set-up: species or system Staphylococcus aureus; conditions: read-out: Kd (membrane binding)
AgrC-1 = assay type: cell-based, Staphylococcus aureus; conditions: for competition with AIP-1 for cognate AgrC: blaZ-based agrP3 reporter
P. aeruginosa = test system: P. aeruginosa; set-up: method as in PMID 21502732; conditions: cited from earlier work
C. difficile = test system: C. difficile; set-up: method as in PMID 19917748; conditions: cited from earlier work
S. aureus USA300 = assay type: cell-based, Staphylococcus aureus; conditions: 4 at up to 100 μM
S. aureus strain Newman = conditions: mouse, in vivo
[1] = test system: adherence of S. aureus to human nasal squamous cells; assay type: cell-based, Staphylococcus aureus
[2] = set-up: method as in PMID 15623555, PMID 22178671; conditions: cited from earlier work

## CCCCCCCCCCCCC/C(O)=C1/C(=O)N[C@@H](CCO)C1=O [Compound 8]
agr
  difference between MIC and agr IC50: little different
Staphylococcus aureus; versus 5 (MIC 100 μM)
  fold lower MIC: 8 fold
S. aureus membranes
  Kd: 2 µM

## CCCCCCCCCC(=O)C1=C(O)COC1=O [Compound 15]
S. aureus membranes
  Kd: 258 µM

## CCCCCC(=O)C1=C(O)COC1=O [Compound 14]
Staphylococcus aureus
  MIC: > 100 µM

## CC(C)CCCCCCC(=O)C1=C(O)COC1=O [Compound S17]
agr
  IC50: > 100 µM
Staphylococcus aureus
  MIC: > 100 µM

## O=C(Cc1ccc([N+](=O)[O-])cc1)C1=C(O)COC1=O [Compound S20]
agr
  IC50: > 100 µM
Staphylococcus aureus
  MIC: > 100 µM

## CCCCCCCCCCCCCCCC(=O)C1=C(O)COC1=O [Compound 18]
Staphylococcus aureus
  MIC: > 100 µM

## CCCCCCCCN(C)C(=O)CC(=O)N[C@H]1CCOC1=O [Compound S11]
agr
  IC50: > 100 µM
Staphylococcus aureus
  MIC: > 100 µM

## CCCCCCCCCC(=O)CC(=O)N[C@@H](CCO)C(=O)O [Compound S1, N-(3-oxododecanoyl)-L-homoserine]
agr
  inhibited agr (result in words): neither
  IC50: > 100 µM
Staphylococcus aureus
  MIC: > 100 µM

## CCCCCCCCCC(O)CC(=O)N[C@H]1CCOC1=O (some centres unmarked) [Compound S9]
agr
  IC50: > 100 µM
Staphylococcus aureus
  MIC: > 100 µM

## CCCCCCCCC/C(O)=C1/C(=O)N[C@@H](C)C1=O [Compound 12, (S)-3-Decanoyl-5-methyltetramic acid]
agr
  inhibited agr (result in words): enhanced agr inhibitory activity

## O=C1N[C@@H](CCO)C(=O)/C1=C(/O)Cc1ccc([N+](=O)[O-])cc1 [Compound 11]
agr
  IC50: > 100 µM
Staphylococcus aureus
  MIC: > 100 µM

## CCCCCCCCCC(=O)CC(=O)Nc1nccs1 [Compound S3]
agr
  IC50: > 100 µM
Staphylococcus aureus
  MIC: > 100 µM

## CCCCCCCCCCC/C(O)=C1/C(=O)N[C@@H](CCO)C1=O [Compound 7, (S)-3-Dodecanoyl-5-(2-hydroxyethyl)tetramic Acid]
S. aureus membranes
  Kd: 23 µM

## O=C(CCCc1ccccc1)CC(=O)N[C@H]1CCOC1=O [Compound S15]
agr
  IC50: > 100 µM
Staphylococcus aureus
  MIC: > 100 µM

## CCCCC/C=C/CCC(=O)CC(=O)N[C@H]1CCOC1=O [Compound S14]
agr
  IC50: > 100 µM
Staphylococcus aureus
  MIC: > 100 µM

## CCCCCCCCCC/C(O)=C1/C(=O)N[C@@H](CCO)C1=O [Compound 6]
agr
  difference between MIC and agr IC50: 5 fold

## CCCCCCCCNC(=O)CC(=O)N[C@H]1CCOC1=O [Compound S10]
agr
  IC50: > 100 µM
Staphylococcus aureus
  MIC: > 100 µM

## CCCCCCCCCCCC(=O)C1=C(O)COC1=O [Compound 16, 3-Dodecanoyltetronic Acid]
S. aureus membranes
  Kd: 72 µM
AgrC-1; 16 versus 1 and 5
  fold more potent in preventing AIP-mediated activation of AgrC: at least 5 fold
AgrC-1
  competition with AIP-1 for cognate AgrC: do not compete

## CCC/C(O)=C1/C(=O)N[C@@H](CCO)C1=O [Compound 3]
agr
  IC50: > 100 µM
P. aeruginosa
  killing of P. aeruginosa: kill P. aeruginosa
C. difficile
  killing of C. difficile: not C. difficile
Staphylococcus aureus
  MIC: > 100 µM
  inhibition of bacterial growth (result in words): did not inhibit growth

## O=C(Cc1ccc(Br)cc1)C1=C(O)COC1=O [Compound S21]
agr
  IC50: > 100 µM
Staphylococcus aureus
  MIC: > 100 µM

## CCCCCCCCCC(=O)CC(=O)N[C@H]1CCNC1=O [Compound S5]
agr
  IC50: > 100 µM
Staphylococcus aureus
  MIC: > 100 µM

## CCCCCCCCCC(=O)CC(=O)N[C@H]1CC(=O)NC1=O [Compound S7]
agr
  IC50: > 100 µM
Staphylococcus aureus
  MIC: > 100 µM

## CCCCCCCCCCCC(=O)N[C@H]1CCOC1=O [Compound S8]
agr
  IC50: > 100 µM
Staphylococcus aureus
  MIC: > 100 µM

## CCCC(=O)CC(=O)C1=C(O)COC1=O [Compound S23]
agr
  IC50: > 100 µM
Staphylococcus aureus
  MIC: > 100 µM

## O=C(CCCC1CCCCC1)CC(=O)N[C@H]1CCOC1=O [Compound S16]
agr
  IC50: > 100 µM
Staphylococcus aureus
  MIC: > 100 µM

## CCCCCCCCC/C(O)=C1\C(=O)CNC1=O [Compound 13, 3-decanoyltetramic acid]
agr
  inhibited agr (result in words): enhanced agr inhibitory activity

## CCCCCCCCOC(=O)CC(=O)N[C@H]1CCOC1=O [Compound S12]
agr
  IC50: > 100 µM
Staphylococcus aureus
  MIC: > 100 µM

## O=C1N[C@@H](CCO)C(=O)/C1=C(/O)CCCC1CCCCC1 [Compound 10]
agr
  IC50: > 100 µM
Staphylococcus aureus
  MIC: > 100 µM

## O=C(COc1ccc(Br)cc1)C1=C(O)COC1=O [Compound S22]
agr
  IC50: > 100 µM
Staphylococcus aureus
  MIC: > 100 µM

## CCCCC/C=C/CCC(=O)C1=C(O)COC1=O [Compound S18]
agr
  effect of double bond in acyl chain on activity: little effect on activity

## CCCCCCCCCC(=O)CC(=O)O[C@H]1CCOC1=O [Compound S13]
agr
  IC50: > 100 µM
Staphylococcus aureus; S. aureus, Table S1, read-out: MIC
  MIC: > 100 µM

## CCCCCCCCCC(=O)CC(=O)N[C@@H]1CCOC1=O [Compound 2]
agr; D-isomer 2 versus 1
  fold less active in agr inhibition than L-isomer 1: approximately 2 fold

## CCCCCCCCCC(=O)CC(=O)N[C@H]1CCOC1=O [Compound 1, N-(3-oxododecanoyl)-L-homoserine lactone]
Staphylococcus aureus; S. aureus, MH broth, Table 1, read-out: MIC
  MIC: 100 µM (≈ 29.7 µg/mL)
S. aureus membranes
  Kd: 270 µM
AgrC-1
  competition with AIP-1 for cognate AgrC: do not compete

## CCCCCCCCCC(=O)CC(=O)N[C@H]1CCSC1=O [Compound S4]
agr
  IC50: > 100 µM
Staphylococcus aureus
  MIC: > 100 µM

## CCCCCCCCCC(=O)CC(N)=O [Compound S2, 3-oxododecanamide]
agr
  inhibited agr (result in words): neither
  IC50: > 100 µM
Staphylococcus aureus
  MIC: > 100 µM

## CCCCCCC/C(O)=C1/C(=O)N[C@@H](CCO)C1=O [Compound 4]
Staphylococcus aureus
  MIC: > 100 µM
  inhibition of bacterial growth (result in words): did not inhibit growth
S. aureus USA300
  staphylococcal growth: without affecting staphylococcal growth; also recorded: without inhibiting the growth

## CCCCCCCCCC(=O)CC(=O)N[C@H]1CCC(=O)NC1=O [Compound S6]
agr
  IC50: > 100 µM
Staphylococcus aureus
  MIC: > 100 µM

## CCCCCCCCC/C(O)=C1/C(=O)N[C@@H](CCO)C1=O [Compound 5, (S)-3-Decanoyl-5-(2-hydroxyethyl)tetramic Acid]
S. aureus strain Newman
  activity in murine infection model: inactive
[1]
  attachment of S. aureus to human squamous cells: substantially reduced attachment
S. aureus membranes
  Kd: 222 µM
AgrC-1
  competition with AIP-1 for cognate AgrC: do not compete
AgrC-1; increasing concentrations of 5 from 0 to 100 μM
  decrease of maximum level of activation by AIP-1: over 10 fold
[2]
  ferric ion chelator (result in words): ferric ion chelators

## CCCCCCCCC/C(O)=C1/C(=O)N[C@H](CCO)C1=O [Compound 9]
agr; (R)-9 versus (S)-5
  fold improvement of agr inhibitory activity: 1.5 fold
Staphylococcus aureus
  MIC: > 100 µM

## CCCCCC/C=C\CCCC(=O)C1=C(O)COC1=O [Compound S19]
agr
  effect of double bond in acyl chain on activity: almost abolished
Staphylococcus aureus
  MIC: > 100 µM

## CCCCCCCCCC(=O)CC(=O)C1=C(O)COC1=O [Compound S24]
agr
  IC50: > 100 µM
Staphylococcus aureus
  MIC: > 100 µM
